The results in this text go back to patent US20030157176A1, “Antimicrobially treated material and methods of preventing coloring thereof” (priority 2001, published 2003).

The series in a line: Silver ion concentration ranges in the water system. The settings on record: dissociated in water system. From the text: A basic idea of the present invention for preventing coloring of silver zeolite is to make an purposeful use of the concentration rages of silver ions dissociated from silver zeolite in water system, i.e., a concentration range A which is effective for antimicrobial action and a concentration range B which is responsible for coloring.
Namely, the concentration range A which is effective for antimicrobial action is more than 1 ppm that is the antimicrobially effective concentration of silver ions while the concentration range B which is responsible for coloring is 40 ppm or more, so that a concentration range C for silver ions dissociated in the water system, which is effective for antimicrobial action without causing coloring, exists between 1 ppm and 40 ppm (preferably between 5 ppm and 30 ppm).
The concentration range of silver ions dissociated from 1000 ppm silver zeolite in the water system varies from 40 ppm to 600 ppm. This variation is probably due to a decrease in the silver ion concentration caused by generation of silver oxide or adsorption of silver ions in the water system, or is under the influence of the degree of dissociation of silver ions by metal salts, surfactants, and temperature. […]

For silver ions, the “antimicrobially effective concentration of silver ions (range A)” value is “more than 1 ppm” and the “silver ion concentration responsible for coloring (range B)” value is listed as ≥ 40 ppm.
